Measurements reported in ChEMBL document CHEMBL5360649, “Potential Broad-Spectrum Antimicrobial, Wound Healing, and Disinfectant Cationic Peptide Crafted from Snake Venom” (J Med Chem, 2023).
Activity calls are given as the source filed them. No cut-off for these calls is given here.

Experiments:
[1] = Cytotoxicity against human WI-38 cells assessed as cell viability at 25 uM incubated for 24 hrs by MTT assay relative to control; format: toxicity, cell-based; details: read-out: Activity
[2] = Induction of wound healing in surgically-induced Albino Wistar rat wound model inoculated with methicillin-resistant Staphylococcus aureus assessed as decrease in mean open wound percentage at 10 uM measured after 11 days by photographic analysis (reference value: 32.25%); format: functional; parameters: scale not given: the % may be the effect or the level left; details: time 11 day
U-937 = experiment: Immunomodulatory activity in human U-937 cells assessed as effect on TNF-alpha expression level at 5 to 10 uM incubated for 24 hrs by radioimmunoprecipitation based dot-plot analysis; format: functional, cell-based; details: dose 5-10 µM
Escherichia coli [3] = experiment: Antibacterial activity against Escherichia coli assessed as inhibition of bacterial growth at 1.25 to 40 uM by microtiter plate reader analysis; format: functional, organism-based; details: dose 1.25-40 µM, time 0.5-8.5 hrs, TDE = time-dependent effect
Pseudomonas aeruginosa [4] = experiment: Induction of morphological changes in Pseudomonas aeruginosa assessed as inhibition of cell division by measuring elongated cells at MIC concentration incubated for 60 mins by SEM analysis; format: functional, organism-based
Staphylococcus aureus [5] = experiment: Antibiofilm activity in methicillin-resistant Staphylococcus aureus assessed as biofilm clearance incubated for 24 hrs by Congo red dye based fluorescence analysis; format: functional, organism-based
[6] = Stability in human serum assessed as intact peptide remaining at 1 mM measured after 24 hrs by HPLC analysis; format: ADME, cell-free; details: read-out: Stability
[7] = Stability in human serum assessed as intact peptide remaining at 1 mM measured after 4 hrs by HPLC analysis; format: ADME, cell-free; details: read-out: Stability
Rattus norvegicus [8] = species: Rattus norvegicus; experiment: Induction of wound healing in surgically-induced Albino Wistar rat wound model assessed as densely packed epithelium containing keratinocytes at 10 uM measured after 11 days by H&E staining based analysis; format: functional; details: time 11.0 day
NMDF = experiment: Induction of cell migration in NMDF cells at 5 uM incubated for 24 hrs by wound healing scratch/mirgation assay; format: functional, cell-based; details: Mus musculus
Cell membrane = experiment: Induction of cytoplasmic membrane depolarization in methicillin-resistant Staphylococcus aureus assessed as increase in fluorescence intensity at 0.5 to 1 times of MIC by DiSC3-5 dye based fluorescence method; format: subcellular
Pseudomonas aeruginosa [9] = experiment: Antibiofilm activity against Pseudomonas aeruginosa assessed as biofilm eradication at 0.5 times of MIC incubated for 24 hrs by CV staining based analysis relative to control; format: functional
Escherichia coli [10] = experiment: Induction of morphological changes in Escherichia coli assessed as membrane perturbation at MIC concentration incubated for 60 mins by SEM analysis; format: functional, organism-based
Pseudomonas aeruginosa [11] = experiment: Induction of morphological changes in Pseudomonas aeruginosa assessed as cellular destruction at MIC concentration incubated for 6 hrs by AFM analysis; format: functional, organism-based
Escherichia coli [12] = experiment: Antibacterial activity against Escherichia coli ATCC CRM-11229 assessed as inhibition of bacterial growth incubated for 24 hrs by CLSI protocol based microdilution method; format: functional
Klebsiella pneumoniae [13] = experiment: Antibiofilm activity against Klebsiella pneumoniae assessed as increase in dead cell proportion at MIC incubated overnight by SYTO9/PI staining based fluorescence analysis; format: functional, organism-based
Staphylococcus aureus [14] = experiment: Antibacterial activity against methicillin resistant Staphylococcus aureus assessed as inhibition of bacterial growth incubated for 0.5 to 8.5 hrs by microtiter plate reader analysis; format: functional, organism-based; details: dose 1.25-40 µM, time 0.5-8.5 hrs
Staphylococcus aureus [15] = experiment: Antibiofilm activity in methicillin-resistant Staphylococcus aureus assessed as biofilm disintegration at 0.5 to 1 times of MIC incubated for 24 hrs by Congo red dye based fluorescence analysis; format: functional, organism-based
Klebsiella pneumoniae [16] = experiment: Induction of morphological changes in carbapenem resistant Klebsiella pneumoniae ATCC BAA-1705 at MIC concentration incubated for 6 hrs by AFM analysis; format: functional, organism-based
Pseudomonas aeruginosa [17] = experiment: Induction of morphological changes in Pseudomonas aeruginosa assessed as inhibition of cell division by measuring filamented cells at MIC concentration incubated for 60 mins by SEM analysis; format: functional, organism-based
Rattus norvegicus [18] = species: Rattus norvegicus; experiment: Induction of wound healing in surgically-induced Albino Wistar rat wound model assessed as reduction in inflammatory signs at 10 uM measured after 11 days by H&E staining based analysis; format: functional; details: time 11.0 day
[19] = Stability in human serum assessed as intact peptide remaining at 1 mM measured after 12 hrs by HPLC analysis; format: ADME, cell-free; details: read-out: Stability
[20] = Stability in human serum assessed as intact peptide remaining at 1 mM measured after 8 hrs by HPLC analysis; format: ADME, cell-free; details: read-out: Stability
Klebsiella pneumoniae [21] = experiment: Antibiofilm activity against Klebsiella pneumoniae in the presence of Cl-; format: functional, organism-based
Pseudomonas aeruginosa [22] = experiment: Antibacterial activity against Pseudomonas aeruginosa assessed as cell division block by measuring bacterial filamentation at 0.5 to 1 times of MIC incubated for 30 mins by SYTO9/PI staining based fluorescence microscopic analysis; format: functional, organism-based
Pseudomonas aeruginosa [23] = experiment: Antibiofilm activity against Pseudomonas aeruginosa in the presence of Na+; format: functional, organism-based
Escherichia coli [24] = experiment: Antibacterial activity against Escherichia coli ATCC CRM-11229 assessed as inhibition of bacterial growth at 25 to 100 uM incubated overnight by spotting assay; format: functional, organism-based; details: dose 25-100 µM
Escherichia coli [25] = experiment: Induction of resistance development in Escherichia coli assessed as change in MIC at 0.5 times of MIC incubated with compound for 12 hrs followed by replacement with fresh medium for 12 hrs and measured after 20 repeated cycles; format: functional, organism-based; details: time 240.0 hrs
Klebsiella pneumoniae [26] = experiment: Antibiofilm activity against preformed biofilm in Klebsiella pneumoniae assessed as decrease in cell viability at MIC incubated overnight by MTT assay relative to control; format: functional
Escherichia coli [27] = experiment: Induction of morphological changes in Escherichia coli at MIC concentration incubated for 6 hrs by SEM analysis; format: functional, organism-based
Klebsiella pneumoniae [28] = experiment: Induction of morphological changes in carbapenem resistant Klebsiella pneumoniae ATCC BAA-1705 assessed as cellular destruction at MIC concentration incubated for 6 hrs by AFM analysis; format: functional, organism-based
RAW264.7 = experiment: Antiinflammatory activity in mouse RAW264.7 cells assessed as increase in TGF-beta1 expression at 10 uM incubated for 24 hrs by radioimmunoprecipitation based dot-plot analysis; format: functional, cell-based
Klebsiella pneumoniae [29] = experiment: Antibiofilm activity against preformed biofilm in Klebsiella pneumoniae assessed as decrease in metabolic activity at MIC incubated overnight by MTT assay; format: functional, organism-based
Klebsiella pneumoniae [30] = experiment: Antibacterial activity against Klebsiella pneumoniae assessed as cell division block by measuring bacterial filamentation at 0.5 to 1 times of MIC incubated for 30 mins by SYTO9/PI staining based fluorescence microscopic analysis; format: functional, organism-based
Pseudomonas aeruginosa [31] = experiment: Induction of resistance development in Pseudomonas aeruginosa assessed as change in MIC at 0.5 times of MIC incubated with compound for 12 hrs followed by replacement with fresh medium for 12 hrs and measured after 20 repeated cycles; format: functional, organism-based; details: time 240.0 hrs
Erythrocyte = experiment: Cytotoxicity against human RBC assessed as less damage to cells at 12.5 to 25 uM by SEM analysis; format: toxicity, cell-based; details: dose 12.5-25 µM
Klebsiella pneumoniae [32] = experiment: Induction of morphological changes in carbapenem resistant Klebsiella pneumoniae ATCC BAA-1705 assessed as cellular destruction at MIC concentration incubated for 6 hrs by SEM analysis; format: functional, organism-based
Escherichia coli [33] = experiment: Antibacterial activity against Escherichia coli assessed as cell division block by measuring bacterial filamentation at 0.5 to 1 times of MIC incubated for 30 mins by SYTO9/PI staining based fluorescence microscopic analysis; format: functional, organism-based
Klebsiella pneumoniae [34] = experiment: Antibiofilm activity against Klebsiella pneumoniae assessed as clearance of preformed biofilm at 0.5 times of MIC incubated for 24 hrs by CV staining based analysis relative to control; format: functional

## H-FLPIIKWVKKFFWRWR-OH
[1]
  viability at 24 h, 25 µM: 88.3%
[2]
  Activity: 17.22%
U-937
  Activity: Active
Escherichia coli [3]
  Activity: Tde
Pseudomonas aeruginosa [4]
  Activity: Active
Staphylococcus aureus [5]
  Activity: Dose-Dependent Effect
[6]
  remaining at 24 h, 1000 µM: 47.1%
[7]
  remaining at 4 h, 1000 µM: 82.6%
Rattus norvegicus [8]
  Activity: Active
NMDF
  Activity: inactive
Cell membrane
  Activity: Active
Pseudomonas aeruginosa [9]
  Activity: ~50%
Escherichia coli [10]
  Activity: Active
Pseudomonas aeruginosa [11]
  Activity: Active
Escherichia coli [12]
  MIC: 3.5 µM
Klebsiella pneumoniae [13]
  Activity: Active
Staphylococcus aureus [14]
  Activity: Dose-Dependent Effect
Staphylococcus aureus [15]
  Activity: Active
Klebsiella pneumoniae [16]
  Activity: Active
Pseudomonas aeruginosa [17]
  Activity: Active
Rattus norvegicus [18]
  Activity: Active
[19]
  remaining at 12 h, 1000 µM: 54.5%
[20]
  remaining at 8 h, 1000 µM: 61%
Klebsiella pneumoniae [21]
  Activity: Active
Pseudomonas aeruginosa [22]
  Activity: Active
Pseudomonas aeruginosa [23]
  Activity: Active
Escherichia coli [24]
  Activity: Active
Escherichia coli [25]
  Activity: inactive
Klebsiella pneumoniae [26]
  Activity: 51.78%
Escherichia coli [27]
  Activity: Active
Klebsiella pneumoniae [28]
  Activity: Active
RAW264.7
  Activity: Active
Klebsiella pneumoniae [29]
  Activity: Active
Klebsiella pneumoniae [30]
  Activity: Active
Pseudomonas aeruginosa [31]
  Activity: inactive
Erythrocyte
  Activity: Non-Toxic
Klebsiella pneumoniae [32]
  Activity: Active
Escherichia coli [33]
  Activity: Active
Klebsiella pneumoniae [34]
  Activity: ~52%
